The record followed here is ChEMBL document CHEMBL5344418, “Recent developments in antimalarial activities of 4-aminoquinoline derivatives” (Eur J Med Chem, 2023).

Each structure is given as a SMILES string. pIC50: −log10 of the molar value.

Data set [1] deals with Plasmodium falciparum. Kind of data set: Antiplasmodial activity against chloroquine-sensitive Plasmodium falciparum NF54 by lactate dehydrogenase assay. The data set is classed as functional, organism-based.
Data set [2] can be described thus: Cytotoxicity against Chinese hamster CHO cells assessed as reduction in cell viability by MTT assay. The format is toxicity, cell-based. Particulars: Chinese hamster (Cricetulus griseus).
Data set [3] relates to Plasmodium falciparum. Kind of data set: Antiplasmodial activity against Plasmodium falciparum K1 assessed as growth inhibition measured after 72 hrs by SYBR green dye based assay. The data set is classed as functional, organism-based. Conditions: K1, 72 h.
In data set [4] the test system is Plasmodium falciparum. Kind of data set: Antiplasmodial activity against Plasmodium falciparum 3D7 assessed as growth inhibition measured after 72 hrs by SYBR green dye based assay. The format is functional, organism-based. Particulars: 3D7, 72 h.
Data set [5] is described as follows: Cytotoxicity against African green monkey Vero cells assessed as reduction in cell viability incubated for 24 hrs by MTT assay. The format is toxicity, cell-based. Particulars: African green monkey (Chlorocebus sabaeus).
For data set [6], the system named is Plasmodium falciparum. Put plainly: Antiplasmodial activity against Plasmodium falciparum W2 assessed as reduction in plasmodial growth after 48 hrs by fluorescence based analysis. The data set is classed as functional, organism-based. Conditions: W2, 48 h.

By pIC50 is commonly meant the negative decadic logarithm of the IC50, by convention in mol/L. What is called IC50 is the concentration that gives 50% inhibition.

Turning to `O=C(/C=C/c1ccc(F)cc1)c1ccc(S(=O)(=O)NCCCNc2cncc3cc(Cl)ccc23)cc1`, the pIC50 in the data set on Plasmodium falciparum [1] was 6.55; in data set [2], 4.83.
On the same counts, the results for `O=C(/C=C/c1ccccc1F)c1ccc(S(=O)(=O)NCCCNc2cncc3cc(Cl)ccc23)cc1` are 6.07 and 4.34.
For `O=C(/C=C/c1ccc(Cl)cc1)c1ccc(S(=O)(=O)NCCCNc2cncc3cc(Cl)ccc23)cc1` the same measures were 7.00 and 4.39.
On the same counts, the results for `O=C(/C=C/c1ccc(F)cc1F)c1ccc(S(=O)(=O)NCCCNc2cncc3cc(Cl)ccc23)cc1` are 6.30 and 4.65.
Turning to `O=C(/C=C/c1ccco1)c1ccc(S(=O)(=O)NCCCNc2cncc3cc(Cl)ccc23)cc1`, the pIC50 was 5.35 in the data set with Plasmodium falciparum [1] and < 4.30 in data set [2].
For `O=C(/C=C/c1ccccc1Cl)c1ccc(S(=O)(=O)NCCNc2cncc3cc(Cl)ccc23)cc1` the same measures were 6.43 and 4.45.
For `COc1ccc(/C=C/C(=O)c2ccc(S(=O)(=O)NCCCNc3cncc4cc(Cl)ccc34)cc2)c(OC)c1OC` the same measures were 6.24 and 4.65.
As for `Clc1ccc2c(NC(Cc3ccccc3)CN3CCN(Cc4ccc5c(c4)OCO5)CC3)ccnc2c1` (centres undefined), the pIC50 in the data set on Plasmodium falciparum [3] was 7.05; in the data set with Plasmodium falciparum [4] it was 6.12.
On the same counts, the results for `CCOC(=O)N1CCN(CCNc2ccnc3cc(Cl)ccc23)CC1` are 6.79 and 6.05.
Consider `O=C(/C=C/c1ccc2c(c1)OCO2)c1ccc(S(=O)(=O)NCCCNc2cncc3cc(Cl)ccc23)cc1`, for which the figures for the pIC50 (in the data set with Plasmodium falciparum [1]; in data set [2]) were 6.16 and 4.47, respectively.
For `Cc1ccc(/C=C/C(=O)c2ccc(S(=O)(=O)NCCCNc3cncc4cc(Cl)ccc34)cc2)cc1` the same measures were 6.43 and 4.60.
For `O=C(/C=C/c1cc(F)ccc1F)c1ccc(S(=O)(=O)NCCCNc2cncc3cc(Cl)ccc23)cc1` the same measures were 6.10 and 4.36.
For `CC(CN1CCN(c2ccccc2)CC1)Nc1ccnc2cc(Cl)ccc12` (centres undefined), the results for the pIC50 with Plasmodium falciparum [3] and in the data set with Plasmodium falciparum [4] were 6.11 and 6.27, respectively.
On to `CCN1CCN(CC(C)Nc2ccnc3cc(Cl)ccc23)CC1` (centres undefined), for which the values for the pIC50 in the data set on Plasmodium falciparum [3] and in the data set with Plasmodium falciparum [4] were 6.44 and 6.90, respectively.
On to `CC(C)CC(CN1CCN(Cc2ccc3c(c2)OCO3)CC1)Nc1ccnc2cc(C(F)(F)F)ccc12` (centres undefined), for which the figures for the pIC50 in the data set with Plasmodium falciparum [3] and in the data set on Plasmodium falciparum [4] were 7.33 and 7.65, respectively.
On the same counts, the results for `CCN1CCN(CC(Cc2ccccc2)Nc2ccnc3cc(Cl)ccc23)CC1` (centres undefined) are 7.15 and 6.37.
On the same counts, the results for `CCOC(=O)N1CCN(CC(CC(C)C)Nc2ccnc3cc(Cl)ccc23)CC1` (centres undefined) are 6.38 and 6.07.
On the same counts, the results for `CC(C)CC(CN1CCN(c2ncccn2)CC1)Nc1ccnc2cc(Cl)ccc12` (centres undefined) are 6.45 and 6.34.
Turning to `Clc1ccc2c(NCCN3CCN(c4ncccn4)CC3)ccnc2c1`, the pIC50 was 6.56 with Plasmodium falciparum [3] and 6.97 in the data set with Plasmodium falciparum [4].
On the same counts, the results for `CCN1CCN(CC(CC(C)C)Nc2ccnc3cc(C(F)(F)F)ccc23)CC1` (centres undefined) are 6.10 and 7.61.
For `CSCCC(CN1CCN(Cc2ccccc2)CC1)Nc1ccnc2cc(Cl)ccc12` (centres undefined) the same measures were < 5.30 and 5.51.
For `CCN1CCN(CC(Nc2ccnc3cc(Cl)ccc23)n2ccc3ccccc32)CC1` (centres undefined) the same measures were < 5.30 and 5.38.
Turning to `CCN(CC)c1ccc2c(c1)C(=O)N(CC(=O)NCCCCNc1ccnc3cc(Cl)ccc13)C2=O`, in data set [5], the IC50 at 24 h was 46.9 µM. Further, the pIC50 with Plasmodium falciparum [6] was 5.93.
On the same counts, the results for `O=C(CCN1C(=O)c2ccccc2C1=O)NCCCCCCCCNc1ccnc2cc(Cl)ccc12` are > 198 µM and 6.82.
On to `O=C(CN1C(=O)c2ccc(F)cc2C1=O)NCCNc1cccc2cc(Cl)ccc12`, for which the 50% inhibitory concentration (IC50) at 24 h in data set [5] was > 235 µM. Also, the pIC50 with Plasmodium falciparum [6] is 5.70.
Turning to `Clc1ccc2c(NC(Cc3ccccc3)CN3CCN(Cc4ccccc4)CC3)ccnc2c1` (centres undefined), the pIC50 with Plasmodium falciparum [3] and in the data set on Plasmodium falciparum [4] was < 5.30 each time.
Turning to `Clc1ccc2c(NC(Cc3ccccc3)CN3CCN(c4ccccc4)CC3)ccnc2c1` (centres undefined), the pIC50 is 5.96 in the data set with Plasmodium falciparum [3] and < 6.00 with Plasmodium falciparum [4].
Consider `O=C(CCN1C(=O)c2ccc(N3CCOCC3)cc2C1=O)NCCNc1ccnc2cc(Cl)ccc12`, for which the IC50 at 24 h in data set [5] worked out at 26.5 µM. Also, in the data set on Plasmodium falciparum [6], the pIC50 is 6.89.
As to `O=C(c1ccco1)N1CCN(CCNc2ccnc3cc(Cl)ccc23)CC1`, the pIC50 in the data set on Plasmodium falciparum [3] is 5.37; in the data set on Plasmodium falciparum [4], 6.00.
For `CCN1CCN(CC(CCSC)Nc2ccnc3cc(Cl)ccc23)CC1` (centres undefined) the same measures were < 5.30 and 5.58.
On the same counts, the results for `CC(C)CC(CN1CCN(Cc2ccccc2)CC1)Nc1ccnc2cc(Cl)ccc12` (centres undefined) are < 6.00 and 6.81.
On the same counts, the results for `CC(CN1CCN(Cc2ccc3c(c2)OCO3)CC1)Nc1ccnc2cc(Cl)ccc12` (centres undefined) are 7.15 and 6.97.
On to `CC(CN1CCN(Cc2ccccc2)CC1)Nc1ccnc2cc(Cl)ccc12` (centres undefined), for which the pIC50 with Plasmodium falciparum [3] is 7.08; in the data set on Plasmodium falciparum [4] it was 6.39.
For `CCC(C)C(CN1CCN(CC)CC1)Nc1ccnc2cc(Cl)ccc12` (centres undefined) the same measures were 6.30 and 6.94.
With `O=C(CN1C(=O)c2ccc(N3CCN(CCO)CC3)cc2C1=O)NCCNc1ccnc2cc(Cl)ccc12`, the IC50 at 24 h in data set [5] is > 186 µM. Moreover, the pIC50 in the data set with Plasmodium falciparum [6] was 5.98.
Regarding `CC(C)CC(CN1CCN(c2ccccc2)CC1)Nc1ccnc2cc(Cl)ccc12` (centres undefined), the pIC50 was < 6.00 in the data set on Plasmodium falciparum [3] and 6.28 with Plasmodium falciparum [4].
Take `O=C(CN1C(=O)c2ccccc2C1=O)NCCCCCCCCNc1ccnc2cc(Cl)ccc12`: in data set [5], the IC50 at 24 h is > 203 µM. Besides, the pIC50 with Plasmodium falciparum [6] is 6.62.
On the same counts, the results for `O=C(CCN1C(=O)c2ccc(F)cc2C1=O)NCCCCCCNc1ccnc2cc(Cl)ccc12` are 57.2 µM and 6.18.
Regarding `CSCCC(CN1CCN(c2ccccc2)CC1)Nc1ccnc2cc(Cl)ccc12` (centres undefined), the pIC50 in the data set with Plasmodium falciparum [3] and in the data set on Plasmodium falciparum [4] was < 5.30 in each case.
In the case of `O=C(CCCN1C(=O)c2ccccc2C1=O)NCCCCCCCCNc1ccnc2cc(Cl)ccc12`, the IC50 at 24 h in data set [5] was determined as 102 µM. Besides, the pIC50 with Plasmodium falciparum [6] is 6.24.
With `CC(C)CC(CN1CCN(Cc2ccc3c(c2)OCO3)CC1)Nc1ccnc2cc(Cl)ccc12` (centres undefined), the pIC50 is 6.34 in the data set with Plasmodium falciparum [3] and 6.68 with Plasmodium falciparum [4].
As to `CCN(CC)c1ccc2c(c1)C(=O)N(CC(=O)NCCCCCCNc1ccnc3cc(Cl)ccc13)C2=O`, in data set [5], the IC50 at 24 h is > 187 µM. Further, in the data set on Plasmodium falciparum [6], the pIC50 was 5.91.
Turning to `O=C(CN1C(=O)c2ccc(N3CCOCC3)cc2C1=O)NCCNc1ccnc2cc(Cl)ccc12`, in data set [5], the IC50 at 24 h was > 203 µM. In addition, in the data set with Plasmodium falciparum [6], the pIC50 was 5.49.
Consider `CCN1CCN(CC(CC(C)C)Nc2ccnc3cc(Cl)ccc23)CC1` (centres undefined), for which the pIC50 was 7.01 in the data set with Plasmodium falciparum [3] and 7.24 in the data set on Plasmodium falciparum [4].
On the same counts, the results for `Clc1ccc2c(NCCN3CCN(Cc4ccc5c(c4)OCO5)CC3)ccnc2c1` are 7.33 and 6.28.
For `Clc1ccc2c(NC(CN3CCN(Cc4ccccc4)CC3)n3ccc4ccccc43)ccnc2c1` (centres undefined) the same measures were 6.28 and 6.22.
As to `O=C(CN1C(=O)c2ccc(N3CCN(CCO)CC3)cc2C1=O)NCCCCCCNc1ccnc2cc(Cl)ccc12`, in data set [5], the IC50 at 24 h was > 169 µM. Moreover, the pIC50 in the data set on Plasmodium falciparum [6] was 6.34.
